{"source": "patent US11058660B2", "about": "“External wound-healing agent, and external wound-healing material” (Mitsui Chemicals, Inc., priority 2014, dated 2021)", "key": {"[1]": {"system": "burn injury sites on the backs of rats", "assay": "Rat burn injury healing test with films", "assay_type": "in vivo", "conditions": "film test", "method": "The skin conditions of the rats were evaluated according to the following scores (visual inspection).\n0: asymptomatic, 1: slight, 2: mild, 3: moderate, 4: crusting, 5: necrosed\nThe test results were expressed as average values±standard errors and analyzed using EXSUS (Version 8.0, CAC EXICARE Corporation) and SAS (Version 9.3, SAS Institute Japan Ltd). For the scores of the skin conditions, the Wilcoxon test was conducted at a 2-sided significance level of 5%.\nIn this animal testing, the films 1 to 3 were applied to burn injury sites on the backs of rats, and the healing effects by the application of the films 1 to 3 were evaluated. For comparison, a burn injury site was left untreated, and the development of the untreated site was observed. The details of the experiment will be described below.\nThe back of a rat was depilated. In the depilated portion, hot water at 80° C. was brought into contact for 5 seconds to form two burn injury sites. […] On days 3, 6, and 9 after the application of the films 1 and 2, the films were removed, and the healing effect was evaluated.\nFurthermore, two burn injury sites were formed on the back of another rat in the same manner as described above. […] On days 3, 6, and 9 after the application of the film 3, the film was removed, and the healing effect was evaluated. […]"}, "[2]": {"system": "burn injury site on the back of a rat", "assay": "Rat burn injury healing test with nonwoven fabrics", "assay_type": "in vivo", "conditions": "nonwoven fabric test", "method": "In this animal testing, the nonwoven fabric A or the nonwoven fabric B was applied to a burn injury site on the back of a rat, and the healing effects by the application of the nonwoven fabric A and B were evaluated. The details of the experiment will be described below.\nThe back of a rat was depilated. In the depilated portion, hot water at 80° C. was brought into contact for 5 seconds to form two burn injury sites. To the burn injury sites, the nonwoven fabric A (about 2 cm×2 cm) and the nonwoven fabric B (about 2 cm×2 cm) were applied, and occlusive patching was performed using non-permeable surgical tape (Blenderm, 3M) and adhesive flexible bandage (Silkytex 3, ALCARE Co., Ltd). On days 3, 6, and 9 after the application of the nonwoven fabrics A and B, the nonwoven fabrics were removed, and the healing effect was evaluated. […]\nTwo burn injury sites were each formed on 15 rats, and then the nonwoven fabric A and the nonwoven fabric B were applied to each two burn injury sites. […] On day 3, the nonwoven fabrics A and B on the rats of test group A were removed, and the skin conditions were assessed. On day 6, the nonwoven fabrics A and B on the rats of test group B were removed, and the skin conditions were assessed, and on day 9, the nonwoven fabrics A and B on the rats of test group C were removed, and the skin conditions were assessed. […]"}}, "data": [{"compound": "CCCCCCCCCCCCCCCCCC(=O)OCC(O)CO", "note": "(centres unmarked) [glycerol alkyl ester, glycerol stearate]", "values": [{"measurement": "healing effect on skin having a burn injury (conclusion)", "setting": "[1]", "result": "has an external wound-healing effect"}, {"measurement": "healing effect on skin having a burn injury (conclusion)", "setting": "[2]", "result": "has an external wound-healing effect"}]}]}
